This is an account of results in ChEMBL document CHEMBL1201862, “PubChem BioAssay data set” (2004).

Test systems include A549; ACHN; HL-60; HOP-62; HOP-92; IGROV-1; KM12; LOX IMVI; MDA-MB-231; MDA-MB-435; MDA-N; Malme-3M; NCI-H23; OVCAR-5; RPMI-8226; SK-MEL-28; SNB-75; U-251; UACC-257.
Experiment in all cases: inhibition of tumour cell growth, NCI panel, 48 h

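The compound was tested at five concentrations on cells cultured in 96-well plates, with a 48-hour exposure period. GI50 = concentration required for 50% inhibition of growth.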 Activity calls are given as the source filed them. Cut-off read from the data, not from the text of the source: active = GI50 up to about 1.1 µM and inactive = higher.

As for `CC(=O)C1=C(C)O[C@@H]2O[C@H](COCc3ccccc3)[C@@H](OCc3ccccc3)[C@H](O)[C@@H]2S1`, the GI50 in the assay on A549 was 27.8 µM (inactive); in the assay with ACHN, 23.3 µM (inactive); with HL-60 it was 16.4 µM (inactive); in the assay with HOP-62, 19.5 µM (inactive); with HOP-92, 22.9 µM (inactive); with IGROV-1, 21.1 µM (inactive). Besides, the GI50 was 19.6 µM (inactive) with KM12; 21 µM (inactive) in the assay on LOX IMVI; 20.3 µM (inactive) in the assay with MDA-MB-231; 19 µM (inactive) in the assay on MDA-MB-435; 22.6 µM (inactive) with MDA-N; 18.3 µM (inactive) in the assay with Malme-3M. The GI50 in the assay on NCI-H23 was 20.4 µM (inactive); in the assay on OVCAR-5 it was 24.8 µM (inactive); in the assay with RPMI-8226 it was 17.2 µM (inactive); in the assay on SK-MEL-28, 27.7 µM (inactive); in the assay on SNB-75, 23.3 µM (inactive); in the assay on U-251, 20.8 µM (inactive). For the same molecule, in the assay with UACC-257, the GI50 is 18.3 µM (inactive).
`C=C1CC(COc2ccc3c(C)c(C)c(=O)oc3c2C)(c2ccccc2)OC1=O` (stereo unspecified): the GI50 in the assay on A549 is 11.7 µM (inactive); in the assay on ACHN, 3.51 µM (inactive); in the assay with HL-60, 0.711 µM (active); in the assay on HOP-62, 6.22 µM (inactive); in the assay on HOP-92, 1.45 µM (inactive); in the assay on IGROV-1, 1.73 µM (inactive). The GI50 is 2.86 µM (inactive) with KM12; 1 µM (active) with LOX IMVI; 2.72 µM (inactive) in the assay with MDA-MB-231; 2.7 µM (inactive) in the assay on MDA-MB-435; 1.87 µM (inactive) with MDA-N; 1.62 µM (inactive) in the assay with Malme-3M. Besides, the GI50 in the assay with NCI-H23 was 2.04 µM (inactive); in the assay on OVCAR-5 it was 9.02 µM (inactive); in the assay with RPMI-8226, 0.486 µM (active); with SK-MEL-28 it was 2.07 µM (inactive); in the assay on SNB-75 it was 2.67 µM (inactive); with U-251, 7.64 µM (inactive). Further, in the assay on UACC-257, the GI50 is 0.531 µM (active).
Regarding `COc1cc(C2c3cc4c(cc3OC(N3CCNCC3)C2C)OCO4)cc(OC)c1OC` (stereo unspecified), the GI50 in the assay on A549 is 1.79 µM (inactive); in the assay with ACHN it was 1.75 µM (inactive); in the assay with HL-60, 0.288 µM (active); in the assay with HOP-62, 1.13 µM (inactive); in the assay on HOP-92, 0.748 µM (active); in the assay with IGROV-1, 1.17 µM (inactive). Besides, the GI50 with KM12 was 0.441 µM (active); with LOX IMVI, 0.871 µM (active); in the assay with MDA-MB-231, 0.403 µM (active); in the assay with MDA-MB-435 it was 0.269 µM (active); with MDA-N, 0.253 µM (active); with Malme-3M, 0.294 µM (active). The GI50 with NCI-H23 was 1.09 µM (active); in the assay on OVCAR-5 it was 5.13 µM (inactive); with RPMI-8226, 0.804 µM (active); in the assay with SK-MEL-28, 2.85 µM (inactive); with SNB-75, 0.262 µM (active); with U-251, 0.675 µM (active). In addition, in the assay on UACC-257, the GI50 is 3.75 µM (inactive).
On to `O=C(CCN1CCCC1)Nc1ccc2sc3ccccc3c(=O)c2n1`, for which the GI50 in the assay on A549 is 12.3 µM (inactive); in the assay on ACHN, 11.5 µM (inactive); in the assay with HL-60, 10.3 µM (inactive); in the assay with HOP-62, 12.3 µM (inactive); in the assay on HOP-92, 18.1 µM (inactive); in the assay with IGROV-1, 15.2 µM (inactive). Moreover, the GI50 is 12.8 µM (inactive) with KM12; > 10 µM (inactive) with LOX IMVI; 13.3 µM (inactive) in the assay with MDA-MB-231; 12.7 µM (inactive) in the assay with MDA-MB-435; 13.4 µM (inactive) in the assay on MDA-N; 13.1 µM (inactive) with Malme-3M. Further, the GI50 in the assay on NCI-H23 is 13.1 µM (inactive); in the assay on OVCAR-5 it was 12.9 µM (inactive); in the assay on RPMI-8226 it was 12 µM (inactive); in the assay on SK-MEL-28, 14.3 µM (inactive); in the assay on SNB-75, 11.8 µM (inactive); with U-251, 12.9 µM (inactive). Further, in the assay on UACC-257, the GI50 is 12.2 µM (inactive).
